Calls of active or inactive are those of the source.
Assays:
[1] = target: Beta-adrenergic receptor kinase 1 (Homo sapiens, UniProt P25098); assay: aptamer displacement from bead-bound GRK2 – biochemical, cherry pick 1, bead flow cytometry, dose response (AID 504500)
[2] = target: T1, Heat shock factor protein 1 (Mus musculus, UniProt P38532); assay: HSF1 potentiators in luciferase reporter cells, confirmation, cell-based, NIH3T3, luminescence, dose retest (AID 435004); format: functional;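 also: stress induced by proteasome inhibitor MG132 added 30 min after compound; luciferase reporter driven by HSF1 response element in NIH3T3 cells; actives raise luminescence as potentiators of the MG132 stress response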
T1 sequence (P38532 whole entry): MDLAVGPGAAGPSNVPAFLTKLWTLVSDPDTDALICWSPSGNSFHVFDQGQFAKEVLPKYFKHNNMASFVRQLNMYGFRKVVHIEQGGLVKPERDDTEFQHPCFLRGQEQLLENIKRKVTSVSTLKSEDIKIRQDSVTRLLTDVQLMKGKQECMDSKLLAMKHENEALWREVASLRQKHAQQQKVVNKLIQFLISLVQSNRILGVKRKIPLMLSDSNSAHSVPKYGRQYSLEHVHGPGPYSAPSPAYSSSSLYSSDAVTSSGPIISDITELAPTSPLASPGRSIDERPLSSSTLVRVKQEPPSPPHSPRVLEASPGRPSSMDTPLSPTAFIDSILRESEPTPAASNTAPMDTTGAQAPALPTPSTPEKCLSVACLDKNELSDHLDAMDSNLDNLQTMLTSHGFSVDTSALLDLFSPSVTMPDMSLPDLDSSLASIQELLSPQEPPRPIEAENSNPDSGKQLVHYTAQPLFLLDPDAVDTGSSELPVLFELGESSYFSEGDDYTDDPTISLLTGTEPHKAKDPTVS

[3] = target: Tyrosine-protein phosphatase non-receptor type 11 (Homo sapiens, UniProt Q06124); assay: SHP2 phosphatase inhibition, dose response, selectivity assay for STEP inhibitor project, biochemical (AID 602367); format: functional; details: read-out: IC50_Mean
Sequence of Tyrosine-protein phosphatase non-receptor type 11 (Q06124 whole entry): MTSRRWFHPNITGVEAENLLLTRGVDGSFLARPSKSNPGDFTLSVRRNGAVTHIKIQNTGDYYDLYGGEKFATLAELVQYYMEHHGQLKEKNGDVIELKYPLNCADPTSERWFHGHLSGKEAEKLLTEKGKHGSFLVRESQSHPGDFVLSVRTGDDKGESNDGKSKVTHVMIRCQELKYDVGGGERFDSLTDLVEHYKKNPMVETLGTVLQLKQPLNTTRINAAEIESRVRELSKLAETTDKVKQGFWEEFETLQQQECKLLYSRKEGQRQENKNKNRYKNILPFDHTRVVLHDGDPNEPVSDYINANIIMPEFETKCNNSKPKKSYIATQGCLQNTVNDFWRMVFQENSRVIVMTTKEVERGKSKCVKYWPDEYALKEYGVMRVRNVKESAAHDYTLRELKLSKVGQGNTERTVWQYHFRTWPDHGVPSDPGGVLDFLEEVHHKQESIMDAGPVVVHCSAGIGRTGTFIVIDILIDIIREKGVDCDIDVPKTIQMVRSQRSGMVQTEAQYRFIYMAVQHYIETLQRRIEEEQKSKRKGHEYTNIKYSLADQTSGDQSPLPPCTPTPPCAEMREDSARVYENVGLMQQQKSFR

[4] = target: Tyrosine-protein phosphatase non-receptor type 5 (Homo sapiens, UniProt P54829); assay: STEP phosphatase inhibitors, confirmation, biochemical, fluorescence intensity, uHTS hits (AID 602372); format: functional; details: read-out: IC50_Mean
[5] = target: Dual specificity protein phosphatase 3 (Homo sapiens, UniProt P51452); assay: VHR phosphatase inhibition, dose response, selectivity assay for STEP inhibitor project, biochemical (AID 602374); format: functional; details: read-out: IC50_Mean
Sequence of Dual specificity protein phosphatase 3 (P51452 whole entry): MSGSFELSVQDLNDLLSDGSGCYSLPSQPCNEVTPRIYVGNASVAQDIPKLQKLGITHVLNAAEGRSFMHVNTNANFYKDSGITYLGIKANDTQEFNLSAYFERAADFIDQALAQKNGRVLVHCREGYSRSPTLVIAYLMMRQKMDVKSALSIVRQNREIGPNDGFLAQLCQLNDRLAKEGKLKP

[6] = NIH-3T3 fibroblast cytotoxicity, dose response, cytotoxicity control, cell-based, fluorescence, Alamar Blue, secondary assay (AID 2327); format: functional;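 also: NIH-3T3 mouse fibroblasts cultured with fluconazole at 8 µg/mL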
[7] = test system: BJ; assay: cytotoxicity toward BJ-TERT fibroblasts, dose response, cell-based, RAS-independent, luminescence (AID 1933); format: functional; details: Homo sapiens
[8] = cells; format: functional, cell-based
[9] = test system: BJ; assay: cells; format: functional, cell-based; details: Homo sapiens
[10] = C. albicans growth with fluconazole, confirmation, fluorescence, retest (AID 2467); format: functional, cell-based
[11] = cells; format: functional, cell-based; remark: listed apart in the source
[12] = target: Serine/threonine-protein phosphatase (Candida dubliniensis (strain CD36 / CBS 7987 / NCPF 3949 / NRRLY-17841) (Yeast), UniProt B9W6M3); assay: calcineurin pathway inhibitors in yeast reporter, dose response, S. cerevisiae, CDRE-lacZ, luminescence, secondary (AID 2388); format: functional, cell-based;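 also: yeast reporter cells carrying a calcineurin-responsive lacZ construct stimulated with calcium chloride; luminescent beta-galactosidase reporter signal in whole cells rather than isolated phosphatase activity; potency for inhibition where a drop in reporter signal means calcineurin blockade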
[13] = test system: BJ; assay: cytotoxicity toward BJ-TERT-LT-ST fibroblasts, dose response, cell-based, RAS-independent, luminescence (AID 1935); format: functional; details: Homo sapiens;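 also: BJ fibroblasts immortalized with TERT plus LT and ST oncogenes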
[14] = cytotoxicity toward DRD oncogenic fibroblasts, dose response, cell-based, non-viral oncogenic, luminescence (AID 1934); format: functional; details: Homo sapiens
[15] = target: Exodeoxyribonuclease V (Escherichia coli (strain K12), UniProt P04993+P07648+P08394); assay: E. coli RecBCD inhibitors, dose response, counter-screen for AddAB inhibitor project, absorbance, V66 E. coli, mutant T4 phage (AID 492957); format: functional, cell-based, Escherichia coli str. K-12 substr. MG1655
Sequence of Exodeoxyribonuclease V (P04993 whole entry): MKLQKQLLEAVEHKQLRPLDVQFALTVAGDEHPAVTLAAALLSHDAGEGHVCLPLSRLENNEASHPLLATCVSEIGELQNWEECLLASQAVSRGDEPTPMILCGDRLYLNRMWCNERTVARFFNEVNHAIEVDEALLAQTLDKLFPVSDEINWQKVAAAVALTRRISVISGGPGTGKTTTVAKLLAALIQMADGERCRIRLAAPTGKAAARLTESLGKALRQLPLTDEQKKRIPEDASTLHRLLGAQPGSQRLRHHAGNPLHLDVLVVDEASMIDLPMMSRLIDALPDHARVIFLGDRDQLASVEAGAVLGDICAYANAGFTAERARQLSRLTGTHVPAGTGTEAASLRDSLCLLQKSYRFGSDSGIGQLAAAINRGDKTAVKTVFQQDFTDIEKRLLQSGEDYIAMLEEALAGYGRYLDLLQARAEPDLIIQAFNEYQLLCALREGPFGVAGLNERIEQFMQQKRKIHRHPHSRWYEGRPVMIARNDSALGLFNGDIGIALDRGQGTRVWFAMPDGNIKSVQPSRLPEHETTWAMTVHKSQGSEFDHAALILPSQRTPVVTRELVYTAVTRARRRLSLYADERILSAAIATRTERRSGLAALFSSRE
Sequence of Exodeoxyribonuclease V (P07648 whole entry): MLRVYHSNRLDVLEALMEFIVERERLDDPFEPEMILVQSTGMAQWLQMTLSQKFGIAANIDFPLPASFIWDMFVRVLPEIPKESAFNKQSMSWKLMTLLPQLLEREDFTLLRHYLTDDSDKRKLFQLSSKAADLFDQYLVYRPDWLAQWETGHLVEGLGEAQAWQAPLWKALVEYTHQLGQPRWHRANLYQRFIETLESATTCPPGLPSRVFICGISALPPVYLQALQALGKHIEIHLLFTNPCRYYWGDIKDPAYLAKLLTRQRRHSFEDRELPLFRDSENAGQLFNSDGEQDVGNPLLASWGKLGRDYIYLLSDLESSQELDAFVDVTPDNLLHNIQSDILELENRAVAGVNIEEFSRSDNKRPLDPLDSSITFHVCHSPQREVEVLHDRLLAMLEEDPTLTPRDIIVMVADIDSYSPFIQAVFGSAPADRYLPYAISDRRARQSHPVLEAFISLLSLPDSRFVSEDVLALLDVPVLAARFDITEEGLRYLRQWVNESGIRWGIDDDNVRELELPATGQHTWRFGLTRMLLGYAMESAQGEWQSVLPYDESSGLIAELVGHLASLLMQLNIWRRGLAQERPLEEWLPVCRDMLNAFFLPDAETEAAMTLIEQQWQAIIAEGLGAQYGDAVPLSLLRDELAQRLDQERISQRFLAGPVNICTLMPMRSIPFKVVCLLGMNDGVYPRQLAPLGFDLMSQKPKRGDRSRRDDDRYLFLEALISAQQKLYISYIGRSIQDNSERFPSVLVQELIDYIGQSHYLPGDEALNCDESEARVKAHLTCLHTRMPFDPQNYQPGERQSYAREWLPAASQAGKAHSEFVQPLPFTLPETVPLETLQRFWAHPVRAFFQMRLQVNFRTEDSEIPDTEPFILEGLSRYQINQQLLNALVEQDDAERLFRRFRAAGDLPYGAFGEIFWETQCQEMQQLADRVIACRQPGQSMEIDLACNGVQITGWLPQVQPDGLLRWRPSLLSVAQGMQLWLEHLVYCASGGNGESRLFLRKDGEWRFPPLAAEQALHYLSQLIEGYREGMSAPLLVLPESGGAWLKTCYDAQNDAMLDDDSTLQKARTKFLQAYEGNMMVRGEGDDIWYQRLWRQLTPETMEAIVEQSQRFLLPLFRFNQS
Sequence of Exodeoxyribonuclease V (P08394 whole entry): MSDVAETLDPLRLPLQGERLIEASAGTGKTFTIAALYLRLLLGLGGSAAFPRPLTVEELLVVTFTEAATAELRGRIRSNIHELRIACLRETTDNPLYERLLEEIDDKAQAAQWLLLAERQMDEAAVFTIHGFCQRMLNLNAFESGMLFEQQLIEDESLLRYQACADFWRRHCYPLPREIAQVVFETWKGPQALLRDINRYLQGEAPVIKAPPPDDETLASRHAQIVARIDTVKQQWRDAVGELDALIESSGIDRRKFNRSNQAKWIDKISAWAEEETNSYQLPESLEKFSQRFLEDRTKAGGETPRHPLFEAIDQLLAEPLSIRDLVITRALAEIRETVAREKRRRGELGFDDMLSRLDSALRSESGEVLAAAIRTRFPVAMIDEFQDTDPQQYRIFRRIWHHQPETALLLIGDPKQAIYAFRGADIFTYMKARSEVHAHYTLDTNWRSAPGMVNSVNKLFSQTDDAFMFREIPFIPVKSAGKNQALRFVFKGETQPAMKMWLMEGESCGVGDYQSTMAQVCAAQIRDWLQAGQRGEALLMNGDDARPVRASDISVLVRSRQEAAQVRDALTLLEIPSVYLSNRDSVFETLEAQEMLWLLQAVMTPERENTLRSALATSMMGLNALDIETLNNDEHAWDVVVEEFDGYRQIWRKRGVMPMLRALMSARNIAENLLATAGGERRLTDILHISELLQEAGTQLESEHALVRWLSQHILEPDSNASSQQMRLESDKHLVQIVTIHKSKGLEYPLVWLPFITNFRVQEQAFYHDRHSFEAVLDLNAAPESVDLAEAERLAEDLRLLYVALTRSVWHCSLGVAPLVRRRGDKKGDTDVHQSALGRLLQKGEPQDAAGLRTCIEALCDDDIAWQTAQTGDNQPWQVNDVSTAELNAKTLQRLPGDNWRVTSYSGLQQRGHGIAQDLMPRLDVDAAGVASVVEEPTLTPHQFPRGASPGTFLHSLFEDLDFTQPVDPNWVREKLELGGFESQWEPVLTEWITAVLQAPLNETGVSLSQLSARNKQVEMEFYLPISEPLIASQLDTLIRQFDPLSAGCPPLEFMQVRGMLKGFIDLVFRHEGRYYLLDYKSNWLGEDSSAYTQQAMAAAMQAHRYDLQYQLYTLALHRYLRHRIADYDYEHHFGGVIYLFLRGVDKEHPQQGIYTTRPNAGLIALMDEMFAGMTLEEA

[16] = Counterscreen for AddAB inhibitors: absorbance-based bacterial cell-based high throughput dose response assay for inhibitors of bacterial viability. [Related pubchem assays (depositor defined):AID435030, AID449728, AID449731, AID488942, AID488955, AID488956]; format: functional
[17] = test system: HEK293; assay: inhibitors of LMP1-driven NF-kB reporter, dose response, cell-based, HEK293, luciferase, cherry-pick (AID 588343); format: functional, Homo sapiens; details: Homo sapiens, HEK293
[18] = target: T2, Latent membrane protein 1 (Human herpesvirus 4 (strain B95-8), UniProt P03230); assay: TES1-eGFP NF-kB reporter inhibition versus Tet-On dsRED, dose response, selectivity assay for LMP1 NF-kB inhibitor project, imaging, HEK293T, dual-color eGFP/dsRED, cherry-picks (AID 588398); format: functional, cell-based
T2 sequence (P03230 whole entry): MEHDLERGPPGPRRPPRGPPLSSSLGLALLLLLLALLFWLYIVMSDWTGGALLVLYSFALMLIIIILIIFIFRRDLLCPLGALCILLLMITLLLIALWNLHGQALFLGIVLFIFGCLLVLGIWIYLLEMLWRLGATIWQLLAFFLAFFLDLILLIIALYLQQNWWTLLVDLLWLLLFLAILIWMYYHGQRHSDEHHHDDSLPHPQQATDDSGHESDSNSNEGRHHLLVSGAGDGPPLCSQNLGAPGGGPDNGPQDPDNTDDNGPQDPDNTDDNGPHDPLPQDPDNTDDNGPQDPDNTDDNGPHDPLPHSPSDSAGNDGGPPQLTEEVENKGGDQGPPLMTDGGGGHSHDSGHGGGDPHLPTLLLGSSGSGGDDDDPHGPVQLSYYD

[19] = test system: INS1; assay: beta cell apoptosis inhibitors, cytokine rescue, dose response, luminescence, retest (AID 449756); format: functional, cell-based; details: Rattus norvegicus;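 also: cell death triggered by IL-1 beta plus TNF-alpha plus IFN-gamma mixture; protective hits raise ATP signal compared with cytokine alone wells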
[20] = target: ATP-dependent molecular chaperone HSP82 (Candida albicans (strain WO-1) (Yeast), UniProt C4YTQ8); assay: loss of DOC-induced GRE-beta-galactosidase reporter signal, dose response, Hsp90 inhibitor project, S. cerevisiae, luminescence (AID 2400); format: functional, cell-based;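 also: beta-galactosidase luminescence from glucocorticoid response element reporter as proxy for Hsp90 function; inhibitor potency where signal loss means Hsp90 inhibition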
[21] = Shn3 3'UTR reporter inhibitors, dose response, cell-based, Clone20 osteoblasts, firefly luciferase, cherry-picked (AID 624132); format: functional;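 also: firefly luciferase luminescence from reporter carrying the Shn3 3'UTR in osteoblasts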
[22] = HepG2 cell cytotoxicity, dose response, cytotoxicity control for Shn3 inhibitor project, CellTiter-Glo, cherry-picked (AID 624134); format: functional, cell-based
[23] = control 3'UTR Renilla luciferase suppression, dose response, counter-screen for Shn3 inhibitor project, cell-based, Clone20-Shn3RL, cherry-picked (AID 624133); format: functional
[24] = target: T3, RNA-binding protein pos-1 (Caenorhabditis elegans, UniProt G5EF15); assay: inhibitors of POS-1/mex-3 RNA binding, dose response, biochemical, fluorescence polarization (AID 1964);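 also: purified POS-1 fused to maltose binding protein made in E. coli; potency of compounds blocking POS-1 binding to fluorescent RNA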
T3 sequence (G5EF15 whole entry): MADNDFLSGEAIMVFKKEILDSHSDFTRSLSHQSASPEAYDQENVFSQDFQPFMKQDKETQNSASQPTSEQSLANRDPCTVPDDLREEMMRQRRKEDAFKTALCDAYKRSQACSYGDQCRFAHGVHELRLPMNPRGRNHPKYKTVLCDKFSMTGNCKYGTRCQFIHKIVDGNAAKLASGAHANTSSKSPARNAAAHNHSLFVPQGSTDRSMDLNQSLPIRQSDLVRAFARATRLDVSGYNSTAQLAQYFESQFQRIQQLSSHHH

[25] = target: T4, Zinc finger protein mex-5 (Caenorhabditis elegans, UniProt Q9XUB2); assay: MEX-5/TCR-2 RNA interaction inhibitors, dose response, biochemical, C. elegans, fluorescence polarization (AID 1960)
T4 sequence (Q9XUB2 whole entry): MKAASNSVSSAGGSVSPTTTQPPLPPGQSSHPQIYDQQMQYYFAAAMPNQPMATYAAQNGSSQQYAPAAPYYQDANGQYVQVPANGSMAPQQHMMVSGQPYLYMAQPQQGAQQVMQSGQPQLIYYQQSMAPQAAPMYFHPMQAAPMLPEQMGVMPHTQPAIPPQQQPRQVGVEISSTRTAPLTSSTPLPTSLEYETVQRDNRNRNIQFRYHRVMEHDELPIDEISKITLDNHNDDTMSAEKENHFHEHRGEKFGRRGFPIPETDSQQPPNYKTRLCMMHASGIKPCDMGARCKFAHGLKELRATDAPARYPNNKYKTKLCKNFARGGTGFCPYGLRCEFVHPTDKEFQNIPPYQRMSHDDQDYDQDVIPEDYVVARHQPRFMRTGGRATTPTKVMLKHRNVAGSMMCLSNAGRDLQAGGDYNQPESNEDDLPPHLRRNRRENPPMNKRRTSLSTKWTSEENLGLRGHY

[26] = target: T5, Endoribonuclease toxin MazF (Escherichia coli K-12, UniProt P0AE70); assay: MazF toxin RNase activators, dose response, biochemical, fluorescence, single-stranded RNA substrate, uHTS hits (AID 588481); format: functional
T5 sequence (P0AE70 whole entry): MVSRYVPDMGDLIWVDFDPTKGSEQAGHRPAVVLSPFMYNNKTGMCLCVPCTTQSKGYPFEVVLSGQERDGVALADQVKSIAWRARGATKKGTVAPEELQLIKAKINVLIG

[27] = target: T5, Endoribonuclease toxin MazF; assay: fluorescent RNA oligo signal without MazF, dose response, counter-screen for MazEF activator project, biochemical, fluorescence, single-stranded RNase substrate (AID 588502); format: functional
[28] = test system: Candida albicans; assay: growth inhibition of resistant C. albicans, dose response, CaCi-8 strain, fluconazole, dry powder, set 4 (AID 488950); format: functional, organism-based
[29] = test system: Candida albicans; assay: fluconazole resistance reversal in C. albicans, dose response, CaCi-2 strain, Alamar Blue, dry powder, set 4 (AID 488943); format: functional, organism-based
[30] = test system: Candida albicans; assay: growth inhibition of azole-resistant C. albicans, dose response, CaCi-8 strain, Alamar Blue, dry powder, set 2 (AID 488909); format: functional, organism-based
[31] = target: Hexokinase-1 (Homo sapiens, UniProt P19367); assay: SAR analysis of small molecule inhibitors of hexokinase domain containing I (HKDC1) in the hexokinase 1 selectivity assay. [Related pubchem assays (depositor defined):AID493160, AID493190]; format: functional
Sequence of Hexokinase-1 (P19367 whole entry, the tested form may be a part): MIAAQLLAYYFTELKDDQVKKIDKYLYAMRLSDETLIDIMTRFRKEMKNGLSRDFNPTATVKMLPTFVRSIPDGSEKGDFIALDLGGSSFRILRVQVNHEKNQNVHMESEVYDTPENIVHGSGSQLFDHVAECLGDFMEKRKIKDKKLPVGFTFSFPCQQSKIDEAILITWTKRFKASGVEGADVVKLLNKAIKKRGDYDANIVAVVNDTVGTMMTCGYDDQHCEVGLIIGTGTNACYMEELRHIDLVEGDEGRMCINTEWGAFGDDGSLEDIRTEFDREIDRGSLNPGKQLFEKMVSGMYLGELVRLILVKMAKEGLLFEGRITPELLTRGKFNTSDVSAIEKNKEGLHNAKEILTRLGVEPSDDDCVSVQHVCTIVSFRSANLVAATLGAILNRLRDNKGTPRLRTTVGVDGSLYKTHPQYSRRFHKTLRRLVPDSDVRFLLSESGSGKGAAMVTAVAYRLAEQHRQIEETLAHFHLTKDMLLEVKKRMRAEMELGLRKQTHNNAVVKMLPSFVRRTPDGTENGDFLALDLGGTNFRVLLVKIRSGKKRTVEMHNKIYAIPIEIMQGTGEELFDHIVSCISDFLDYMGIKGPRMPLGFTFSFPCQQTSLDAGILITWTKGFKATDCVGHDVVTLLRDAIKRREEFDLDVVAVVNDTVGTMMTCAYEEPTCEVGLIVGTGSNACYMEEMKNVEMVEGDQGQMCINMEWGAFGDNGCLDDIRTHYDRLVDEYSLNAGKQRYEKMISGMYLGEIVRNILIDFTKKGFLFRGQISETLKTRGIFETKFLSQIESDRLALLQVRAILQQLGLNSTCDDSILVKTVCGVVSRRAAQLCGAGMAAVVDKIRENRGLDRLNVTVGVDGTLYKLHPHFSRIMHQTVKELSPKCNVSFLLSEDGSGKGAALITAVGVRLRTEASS

[32] = target: T6, Hexokinase HKDC1 (Homo sapiens, UniProt Q2TB90); assay: SAR analysis of small molecule inhibitors of hexokinase domain containing I (HKDC1). [Related pubchem assays (depositor defined):AID493160, AID493190]; format: functional
T6 sequence (Q2TB90 whole entry): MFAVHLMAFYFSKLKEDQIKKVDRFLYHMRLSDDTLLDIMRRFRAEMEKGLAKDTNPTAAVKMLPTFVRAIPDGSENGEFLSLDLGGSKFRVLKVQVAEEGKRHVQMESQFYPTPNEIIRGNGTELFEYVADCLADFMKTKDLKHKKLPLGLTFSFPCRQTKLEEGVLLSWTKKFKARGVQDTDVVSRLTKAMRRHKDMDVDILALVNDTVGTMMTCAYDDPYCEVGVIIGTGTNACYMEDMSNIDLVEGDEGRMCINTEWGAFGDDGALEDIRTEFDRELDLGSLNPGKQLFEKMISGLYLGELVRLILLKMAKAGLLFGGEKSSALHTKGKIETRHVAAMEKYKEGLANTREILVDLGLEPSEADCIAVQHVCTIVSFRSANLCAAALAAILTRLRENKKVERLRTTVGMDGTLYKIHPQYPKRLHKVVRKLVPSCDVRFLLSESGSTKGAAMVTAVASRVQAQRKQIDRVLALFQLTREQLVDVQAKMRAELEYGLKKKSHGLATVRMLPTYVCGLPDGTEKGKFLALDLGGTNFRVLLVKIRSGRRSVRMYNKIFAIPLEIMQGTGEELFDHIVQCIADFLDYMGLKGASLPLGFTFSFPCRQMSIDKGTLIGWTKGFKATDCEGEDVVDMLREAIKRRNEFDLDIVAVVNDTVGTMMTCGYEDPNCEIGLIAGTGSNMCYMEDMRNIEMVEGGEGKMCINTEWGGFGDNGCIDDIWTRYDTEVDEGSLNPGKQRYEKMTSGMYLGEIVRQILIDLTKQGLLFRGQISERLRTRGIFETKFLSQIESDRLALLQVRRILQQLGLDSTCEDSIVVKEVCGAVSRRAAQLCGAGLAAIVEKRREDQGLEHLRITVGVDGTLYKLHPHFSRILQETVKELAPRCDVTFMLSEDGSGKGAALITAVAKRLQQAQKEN

CCOC(=O)CC(NS(=O)(=O)c1ccc2ncc(C(=O)O)c(O)c2c1)c1ccc(OCC)c(OC)c1 (configuration not stated)
EC50 [1]: 3.62 µM (active) | EC50 [2]: > 260 µM (inactive) | IC50 [3]: 1.53 µM (active) | IC50 [4]: 46.3 µM (inactive) | IC50 [5]: 3 µM (active)

Oc1cccc(C(Nc2nccs2)c2ccc3cccnc3c2O)c1 (configuration not stated)
EC50 [6]: 20.1 µM (inconclusive) | EC50 [7]: 9.83 µM (active) | EC50 [8]: 13.2 µM (active) | EC50 [9]: 8.06 µM (active) | EC50 [10]: 0.796 µM (active) | EC50 [11]: > 350 µM (not active) | EC50 [12]: > 180 µM (inactive) | EC50 [13]: 6.31 µM (active) | EC50 [14]: 6.12 µM (active) | IC50 [15]: > 119 µM (inactive) | IC50 [16]: 107 µM (inactive) | AC50 [17]: 14 µM (active) | AC50 [18]: 8.97 µM (active) | AC50 [19]: 0.95 µM (active) | EC50 [20]: > 160 µM (inactive) | AC50 [21]: 1.67 µM (active) | AC50 [22]: 5.04 µM (active) | AC50 [23]: 1.87 µM (active)

CC(=O)N1CCN(c2ccc(N/C=C3\C(=O)NC(=O)N(Cc4ccccc4)C3=O)cc2)CC1
EC50 [24]: > 300 µM (not active) | EC50 [25]: 83.1 µM (active) | EC50 [26]: > 99 µM (inactive) | EC50 [27]: 19 µM (active)

O=C(c1ccccc1Cl)N1CCN(c2ccnc3cc(Cl)ccc23)CC1
AC50 [28]: 7.36 µM (active) | AC50 [29]: 4.8 µM (active) | AC50 [30]: 25.2 µM (active)

O=C(CSc1ncccn1)Nc1cccc(S(=O)(=O)N2CCOCC2)c1
IC50 [31]: > 80 µM (inactive) | IC50 [32]: > 80 µM (inactive)

Reference: ChEMBL document CHEMBL1201862, “PubChem BioAssay data set” (2004)
